This passage reports AC50 results from patent publication US20250171438A1 (Agios Pharmaceuticals, Inc., priority 2022, published 2025).

Some results are limits rather than exact numbers.

In one experiment the target is T1, human PAH with the R408W mutation (Homo sapiens, UniProt P00439, R408W).
T1 construct: expressed in transfected cells
T1 sequence (P00439 1-452 R408W): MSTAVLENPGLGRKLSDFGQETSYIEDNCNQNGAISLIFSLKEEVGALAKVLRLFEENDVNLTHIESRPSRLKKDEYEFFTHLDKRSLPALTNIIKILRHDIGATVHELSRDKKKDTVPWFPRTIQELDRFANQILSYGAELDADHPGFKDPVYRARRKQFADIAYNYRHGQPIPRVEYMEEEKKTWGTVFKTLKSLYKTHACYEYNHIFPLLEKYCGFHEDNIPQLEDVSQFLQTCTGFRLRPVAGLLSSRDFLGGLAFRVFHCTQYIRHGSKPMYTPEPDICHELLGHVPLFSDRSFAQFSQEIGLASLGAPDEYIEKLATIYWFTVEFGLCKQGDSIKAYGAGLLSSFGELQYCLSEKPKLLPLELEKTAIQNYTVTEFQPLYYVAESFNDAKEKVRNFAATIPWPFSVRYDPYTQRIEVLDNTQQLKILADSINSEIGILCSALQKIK
As to the kind of experiment: Cell Based Phenylalanine Flux Assay. To be noted: A375 cells expressing human R408W PAH; 24 hrs compound incubation; 13C-Tyrosine by LC-MS; average where tested multiple times; read-out: AC50.
As to `O=C(c1nnc(-c2cnn(C(F)F)c2)o1)N1CCc2[nH]cnc2[C@H]1c1nc2c(F)cccc2s1` [Example 1824, (S)-(5-(1-(difluoromethyl)-1H-pyrazol-4-yl)-1,3,4-oxadiazol-2-yl)(4-(4-fluorobenzo[d]thiazol-2-yl)-6,7-dihydro-1H-imidazo[4,5-c]pyridin-5(4H)-yl)methanone], the AC50 is less than 0.5 µM.
On the same count and under the same terms, the figure for `O=C(c1ocnc1C1CC1)N1CCc2[nH]cnc2[C@H]1c1nc2c(F)cccc2s1` [Example 1495] is less than 0.5 µM; for `O=C(CCc1nccs1)N1CCc2[nH]cnc2[C@H]1c1nc2ccc(Br)cc2s1` [Example 1081, (S)-1-(4-(6-bromobenzo[d]thiazol-2-yl)-6,7-dihydro-1H-imidazo[4,5-c]pyridin-5(4H)-yl)-3-(thiazol-2-yl)propan-1-one] it is 0.5 to 1 µM; for `O=C(c1cnc(-c2ccc(C(F)(F)F)nc2)s1)N1CCc2[nH]cnc2[C@@H]1c1nc2ccccc2s1` [Example 1355, (R)-(4-(benzo[d]thiazol-2-yl)-6,7-dihydro-1H-imidazo[4,5-c]pyridin-5(4H)-yl)(2-(6-(trifluoromethyl)pyridin-3-yl)thiazol-5-yl)methanone] it is 1 to 5 µM.
On the same count and under the same terms, with `O=C(c1oc(C2CC2)nc1C(F)(F)F)N1CCc2[nH]cnc2[C@@H]1c1nc2c(F)cccc2s1` [Example 2184, (R)-(2-cyclopropyl-4-(trifluoromethyl)oxazol-5-yl)(4-(4-fluorobenzo[d]thiazol-2-yl)-1,4,6,7-tetrahydro-5H-imidazo[4,5-c]pyridin-5-yl)methanone] the figure was less than 0.5 µM; with `CN(C)CCc1nc(C(F)(F)F)c(C(=O)N2CCc3[nH]cnc3[C@@H]2c2nc3ccccc3s2)o1` [Example 1582, (R)-(4-(benzo[d]thiazol-2-yl)-6,7-dihydro-1H-imidazo[4,5-c]pyridin-5(4H)-yl)(2-(2-(dimethylamino)ethyl)-4-(trifluoromethyl)oxazol-5-yl)methanone], less than 0.5 µM.
The same measure, in the same setting: the figure for `O=C(c1cnn2cc(Br)ccc12)N1CCc2[nH]cnc2[C@H]1c1nc2c(F)cccc2s1` [Example 1235] is 0.5 to 1 µM; for `C[C@@H](O)c1nc(C(F)F)c(C(=O)N2CCc3[nH]cnc3[C@H]2c2nc3c(F)cccc3s2)o1` [Example 1980, (4-(difluoromethyl)-2-((R)-1-hydroxyethyl)oxazol-5-yl) ((S)-4-(4-fluorobenzo[d]thiazol-2-yl)-6,7-dihydro-1H-imidazo[4,5-c]pyridin-5(4H)-yl)methanone] it is less than 0.5 µM.
On to `Nc1nc(C(F)(F)F)c(C(=O)N2CCc3[nH]cnc3[C@@H]2c2nc3ccccc3s2)o1` [Example 1534, (R)-(2-amino-4-(trifluoromethyl)oxazol-5-yl)(4-(benzo[d]thiazol-2-yl)-6,7-dihydro-1H-imidazo[4,5-c]pyridin-5(4H)-yl)methanone], for which the AC50 was 0.5 to 1 µM.
The same measure, in the same setting: with `O=C(c1cnc(-c2c(F)cccc2F)s1)N1CCc2[nH]cnc2[C@H]1c1nc2c(F)cccc2s1` [Example 1504] the figure was less than 0.5 µM; with `O=C(CCc1nccs1)N1CCc2[nH]cnc2[C@H]1c1nc2ccc(F)cc2s1` [Example 1029, (S)-1-(4-(6-fluorobenzo[d]thiazol-2-yl)-6,7-dihydro-1H-imidazo[4,5-c]pyridin-5(4H)-yl)-3-(thiazol-2-yl)propan-1-one], 0.5 to 1 µM; with `O=C(CCc1nccs1)N1CCc2[nH]cnc2[C@@H]1c1nc2ccc(Br)cc2[nH]1` [Example 909, (R)-1-(4-(6-bromo-1H-benzo[d]imidazol-2-yl)-6,7-dihydro-1H-imidazo[4,5-c]pyridin-5(4H)-yl)-3-(thiazol-2-yl)propan-1-one], more than 5 µM.
On to `Cc1cccc2sc([C@@H]3c4nc[nH]c4CCN3C(=O)c3cncs3)nc12` [Example 1305, (S)-(4-(4-methylbenzo[d]thiazol-2-yl)-6,7-dihydro-1H-imidazo[4,5-c]pyridin-5(4H)-yl)(thiazol-5-yl)methanone], for which the AC50 was in the range of 0.5 to 1 µM.
Consider `O=C(c1nnc(C2CC(F)(F)C2)o1)N1CCc2[nH]cnc2[C@H]1c1nc2c(F)cccc2s1` [Example 1892, (S)-(5-(3,3-difluorocyclobutyl)-1,3,4-oxadiazol-2-yl)(4-(4-fluorobenzo[d]thiazol-2-yl)-6,7-dihydro-1H-imidazo[4,5-c]pyridin-5(4H)-yl)methanone], for which the AC50 was 0.5 to 1 µM.
On to `O=C(c1ncco1)N1CCc2[nH]cnc2[C@@H]1c1nc2c(F)cccc2s1` [Example 1226, (R)-(4-(4-fluorobenzo[d]thiazol-2-yl)-6,7-dihydro-1H-imidazo[4,5-c]pyridin-5(4H)-yl)(oxazol-2-yl)methanone], for which the AC50 is more than 5 µM.
On the same count and under the same terms, with `O=C(c1cnn(-c2ccc(F)cc2)c1)N1CCc2[nH]cnc2[C@H]1c1nc2ccccc2s1` [Example 1411] the figure was less than 0.5 µM.
Still for that read-out and setting: with `CC(C)(F)c1nnc(C(=O)N2CCc3[nH]cnc3[C@H]2c2nc3ccccc3s2)o1` [Example 1834] the figure was less than 0.5 µM.
Still for that read-out and setting: with `O=C(CCC1CC1)N1CCc2[nH]cnc2[C@@H]1c1nc2cccc(F)c2s1` [Example 1134, (R)-3-cyclopropyl-1-(4-(7-fluorobenzo[d]thiazol-2-yl)-6,7-dihydro-1H-imidazo[4,5-c]pyridin-5(4H)-yl)propan-1-one] the figure was 1 to 5 µM; with `COc1cccc(CCCC(=O)N2CCc3[nH]cnc3[C@@H]2c2nc3ccccc3[nH]2)c1` [Example 918, (R)-1-(4-(1H-benzo[d]imidazol-2-yl)-6,7-dihydro-1H-imidazo[4,5-c]pyridin-5(4H)-yl)-4-(3-methoxyphenyl)butan-1-one], more than 5 µM; with `Cc1cnn(C)c1-c1nnc(C(=O)N2CCc3[nH]cnc3[C@@H]2c2nc3ccccc3s2)o1` [Example 1948, (R)-(4-(benzo[d]thiazol-2-yl)-6,7-dihydro-1H-imidazo[4,5-c]pyridin-5(4H)-yl)(5-(1,4-dimethyl-1H-pyrazol-5-yl)-1,3,4-oxadiazol-2-yl)methanone], 1 to 5 µM.
On to `O=C(c1cnn2cc(Br)ccc12)N1CCc2[nH]cnc2[C@@H]1c1nc2c(F)cccc2s1` [Example 1236, (R)-(6-bromopyrazolo[1,5-a]pyridin-3-yl)(4-(4-fluorobenzo[d]thiazol-2-yl)-6,7-dihydro-1H-imidazo[4,5-c]pyridin-5(4H)-yl)methanone], for which the AC50 was 1 to 5 µM.
Still for that read-out and setting: with `O=C(c1nncs1)N1CCc2[nH]cnc2[C@@H]1c1nc2cccc(F)c2s1` [Example 1265, (R)-(4-(7-fluorobenzo[d]thiazol-2-yl)-6,7-dihydro-1H-imidazo[4,5-c]pyridin-5(4H)-yl)(1,3,4-thiadiazol-2-yl)methanone] the figure was 1 to 5 µM; with `CC(C)(C)c1ncc(C(=O)N2CCc3[nH]cnc3[C@H]2c2nc3c(F)cccc3s2)o1` [Example 1430], less than 0.5 µM.
The same measure, in the same setting: the figure for `CCc1ccc2c(C(=O)N3CCc4[nH]cnc4[C@@H]3c3nc4ccccc4s3)cnn2c1` [Example 1244, (R)-(4-(benzo[d]thiazol-2-yl)-6,7-dihydro-1H-imidazo[4,5-c]pyridin-5(4H)-yl)(6-ethylpyrazolo[1,5-a]pyridin-3-yl)methanone] is more than 5 µM.
Regarding `Cc1nc(C(C)(C)N(C)C)oc1C(=O)N1CCc2[nH]cnc2[C@H]1c1nc2c(F)cccc2s1` [Example 2049, (S)-(2-(2-(dimethylamino)propan-2-yl)-4-methyloxazol-5-yl)(4-(4-fluorobenzo[d]thiazol-2-yl)-6,7-dihydro-1H-imidazo[4,5-c]pyridin-5(4H)-yl)methanone], the AC50 was 1 to 5 µM.
Same read-out and setting: the figure for `Cc1nc(-c2ccccn2)oc1C(=O)N1CCc2[nH]cnc2[C@H]1c1nc2ccccc2s1` [Example 1371] is less than 0.5 µM; for `O=C(c1ocnc1C(F)(F)F)N1CCc2[nH]cnc2[C@@H]1c1nc2c(F)cccc2s1` [Example 1494, (R)-(4-(4-fluorobenzo[d]thiazol-2-yl)-6,7-dihydro-1H-imidazo[4,5-c]pyridin-5(4H)-yl)(4-(trifluoromethyl)oxazol-5-yl)methanone] it is less than 0.5 µM.

Still in this experiment, the particulars now being: A375 cells expressing human R408W PAH; 24 hrs with compound; 13C-Tyrosine by LC-MS; average where tested multiple times; read-out: AC50.
For the molecule `O=C(C1CCC1)N1CCc2[nH]cnc2[C@H]1c1nc2ccccc2[nH]1` [(S)-(4-(1H-benzo[d]imidazol-2-yl)-6,7-dihydro-1H-imidazo[4,5-c]pyridin-5(4H)-yl)(cyclobutyl)methanone], the AC50 fell in the range of 1 to 5 µM.
The same measure, in the same setting: the figure for `O=C(c1cnc(Br)s1)N1CCc2[nH]cnc2C1c1nc2ccccc2s1` (stereo not shown) is more than 5 µM; for `Cc1nc(N2CCN(C)CC2)oc1C(=O)N1CCc2[nH]cnc2C1c1nc2c(F)cccc2s1` (stereo not shown) it is 1 to 5 µM.
As to `O=C(c1nccs1)N1CCc2nc[nH]c2C1c1nc2ccc(F)cc2s1` (stereo not shown), the AC50 was more than 5 µM.
Still for that read-out and setting: with `O=C(Cc1nccs1)N1CCc2[nH]cnc2C1c1nc2ccc(Br)cc2s1` (stereo not shown) the figure was 1 to 5 µM.
As for `O=C(c1cnn2cc(Br)ccc12)N1CCc2[nH]cnc2C1c1nc2ccc(Cl)cc2[nH]1` (stereo not shown), the AC50 is 1 to 5 µM.
Still for that read-out and setting: the figure for `Cc1csc(C(=O)N2CCc3[nH]cnc3[C@H]2c2nc3ccccc3[nH]2)n1` [(S)-(4-(1H-benzo[d]imidazol-2-yl)-1,4,6,7-tetrahydro-5H-imidazo[4,5-c]pyridin-5-yl)(4-methylthiazol-2-yl)methanone] is 1 to 5 µM.
On the same count and under the same terms, the figure for `O=C(c1cnn2cccc(F)c12)N1CCc2[nH]cnc2C1c1nc2ccccc2s1` (stereo not shown) is 1 to 5 µM; for `O=C(Cc1nc(C(F)(F)F)cs1)N1CCc2[nH]cnc2C1c1nc2ccc(F)cc2[nH]1` (stereo not shown) it is more than 5 µM; for `O=C(N1CCC(O)C1)N1CCc2[nH]cnc2C1c1nc2ccccc2s1` (stereo not shown) it is 1 to 5 µM.

One may read the AC50 as the concentration at which the activity in the assay is half-maximal.
